Measurements from patent publication US20240058387A1, “CULTURE MEDIUM COMPOSITION FOR AMPLIFYING AND MAINTAINING SELF-RENEWAL CAPACITY AND DIFFERENTIATION POTENTIAL OF HSCS AND APPLICATION THEREOF” (EDIGENE (GUANGZHOU) INC., priority 2020, published 2024).

Assays:
[1] = system: mobilized peripheral blood-derived CD34+ cells; test: Cell counting: absolute number of marker-positive cells, comparison with UM171 and SR1; assay type: cell-based, human; conditions: FIG. 5B, 8 days
Protocol: According to the solubility and required solvent indicated in the instructions of the small molecule inhibitor (see Table 1 for the Cat. number of the small molecule inhibitor), the preparation of the small molecule inhibitor stock solution was carried out. Next, the hematopoietic stem cell medium was prepared: SFEM II medium (stem cell, Cat. number: 09655)+50 ng/ml growth factor Flt-3L (PeProtech, Cat. number: 300-100UG)+50 ng/ml growth factor SCF (PeProtech, Cat. number): 300-07-100UG)+50 ng/ml growth factor TPO (PeProtech, Cat. number: 300-18-100UG)+10 ng/ml interleukin IL-6 (PeProtech, Cat. number: 200-06-20UG)+1% bispecific antibody (HyClone, Cat. No.: sv30010). According to the set concentration gradient of the small molecule inhibitor, the stock solution and the basal medium were used to prepare the medium containing different concentrations of the small molecule inhibitor.
First, the prepared medium was added to a 24-well plate (Corning, Cat. number: 3473), 950 μl per well, and placing it in a carbon dioxide incubator (Thermo, model: 3111) to preheat; resuspending the spare umbilical cord Blood-derived HSCs of Example 1 with SFEM 11+50 ng/ml Flt-3L+50 ng/ml SCF+50 ng/ml TPO+10 ng/ml IL-6+1% bispecific antibody, calculating the medium volume to be added according to 50 μl cell suspension per well and 2*10^5/m1 cell density per well. For example, when the final volume of the cell culture solution per well was 1 ml, the total number of cells per well was 2*10^5 cells calculated according to the cell density per well, and the density of the […] of cell suspension supplemented to each well is 4*10^6/ml. The density of the spare HSCs of Example 1 was adjusted to the calculated density of the cell suspension, and adding it; taking out the preheated medium from the incubator, adding 50 μl of the cell suspension to each well, and after mixing, using the microscope (OLYMPUS, model: CKX53) to observe the cells state, and then putting it into an incubator for culturing.
On the mobilized peripheral blood-derived CD34+ cells sorted in Example 1, the screened-out inhibitor AG1296 and literature-reported (Fares I, et al. Science. 2014; Boitano A E, et al. Science. 2010) inhibitors UM171 and SR1 were compared in the same way as Example 2. Eight days after the induction of the small molecule inhibitor, the expression of LT-HSCs cell surface markers (CD34+CD45+CD90+CD45RA−CD38−) was detected by flow cytometry using the same method as in Example 3. After 8 days of culture, 20 μL of cell suspension was taken into a cell counter (Nexcelom, model: Cellometer K2) and counted, and the absolute numbers of the final CD34+ cells and LT-HSCs on […] were calculated (absolute number of cells=total number of cells*stemness ratio).

[2] = system: umbilical cord blood-derived CD34+ cells; test: In vitro colony-forming unit (CFU) assay; assay type: cell-based, human; conditions: FIG. 6, clones counted 14 days after seeding
Protocol: In this example, the colony-forming unit (CFU) was used to detect the in vitro function of cord blood-derived hematopoietic stem cells induced by a small molecule inhibitor for qualitative and quantitative detection to verify their in vitro differentiation potential.
First, 100 mL of medium MethoCult™ H4034 Optimum (Stem Cell, Cat. No.: 04034) were aliquoted, then thawing at 2-8° C. overnight; shaking vigorously for 1-2 minutes and letting it stand for 10 minutes until the bubbles rised to the liquid level. After tightly fitting the 50 mL syringe needle to the 5 mL disposable syringe, the medium is aspirated to 1 mL, pushing out the syringe completely to exhaust the gas in the syringe, and re-absorbing 3 mL into each 15 mL centrifuge tube (Corning, Cat. No. 430791); storing at 2-8° C. for 1 month, and at −20° C. for long-term storage.
3 mL of medium Meth® Cult′ H4034 Optimum was prepared and thawed overnight at room temperature (15-25° C.) or 2-8° C. […]
Colonies were observed on the 7th and 14th days of culture, and colonies were counted with a STEMgrid™-6 counting grid (stem cell, Cat. number: 27000) after 14 days of culture. […]

## COc1cc2ncc(-c3ccccc3)nc2cc1OC [AG1296]
[1]; 1 μM
  absolute number of CD34+CD90+, and CD34+CD90+CD45RA- cells: showed superiority
  effect on cell proliferation: could inhibit cell proliferation
[1]; AG1296 at 1 μM, UM171 concentration not given
  absolute number of CD34+ cells: not significantly better than other groups
[2]; 1 μM, 8 days treatment
  number of GEMM clones (CFU-GEMM): significantly better than the other groups
[2]; different concentrations of AG1296, 8 days treatment
  total number of clones: little difference between the groups
